Assay results: PubChem BioAssay (NCI)
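Step 1: Grow cells in 96-well plates. Step 2: Expose to compound for 48 hours at 5 concentrations. Step 3: Interpolate endpoints linearly; if unreached, use highest concentration. Definition used: TGI = concentration required for complete inhibition of growth.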

Legend:
Assay in all cases: NCI-60 cell line screen, 48 h
786-0 renal = test system: 786-0 renal
NCI-H23 lung = test system: NCI-H23 lung
RXF 393 renal = test system: RXF 393 renal
SF-268 CNS = test system: SF-268 CNS
SNB-75 CNS = test system: SNB-75 CNS
HOP-62 NSCLC = test system: HOP-62 NSCLC
UACC-257 melanoma = test system: UACC-257 melanoma
HL-60(TB) leukemia = test system: HL-60(TB) leukemia
OVCAR-4 ovarian = test system: OVCAR-4 ovarian
MDA-MB-231 breast = test system: MDA-MB-231 breast

Structure (SMILES) | TGI (786-0 renal) | TGI (NCI-H23 lung) | TGI (RXF 393 renal) | TGI (SF-268 CNS) | TGI (SNB-75 CNS) | TGI (HOP-62 NSCLC) | TGI (UACC-257 melanoma) | TGI (HL-60(TB) leukemia) | TGI (OVCAR-4 ovarian) | TGI (MDA-MB-231 breast)
CCCCCCCCOc1ccc(/C=C/C2=[N+](CCO)CCO2)cc1 | 13.7 µM | 5.28 µM | 7.91 µM | 20.5 µM | 9.2 µM | 39.8 µM | 12.4 µM | 4.74 µM | 14.2 µM | 11.4 µM
O=[Se](O)O | 7.35 µM | > 94.4 µM | 10.3 µM | 4.94 µM | 7.55 µM | 1.95 µM | > 100 µM | > 100 µM | 21.1 µM | 3.05 µM
COc1ccccc1NC(=O)CC(=O)NN | > 100 µM | > 100 µM | > 100 µM | > 100 µM | > 100 µM | > 100 µM | > 100 µM | > 100 µM | > 100 µM | > 100 µM
Oc1ccc(-c2nc3ccccc3s2)cc1 | > 100 µM | 79.1 µM | > 100 µM | 90.2 µM | > 100 µM | > 100 µM | > 100 µM | > 100 µM | > 100 µM | 63.4 µM
O=c1c2nc(-c3ccccc3)oc2n(-c2ccccc2)c(=O)n1-c1ccccc1 | 31.7 µM | > 46.4 µM | 34.8 µM | 39.3 µM | 31.2 µM | 29.7 µM | > 46.4 µM | > 100 µM | 36.6 µM | > 46.4 µM
COc1cc(N(CCC#N)CCC#N)ccc1/C=N\NC(=O)c1ccc(C)cc1 | > 100 µM | > 100 µM | > 100 µM | > 100 µM | > 100 µM | > 100 µM | > 100 µM | > 100 µM | > 100 µM | 36.7 µM
CC(C)=CCC[C@@H](C)C1=C(O)C(Nc2ccccc2I)=C(C)C(=O)C1=O | > 58.7 µM | 38.9 µM | > 50 µM | > 69.3 µM | 37.1 µM | 23.1 µM | 74.3 µM | 4.39 µM | > 75 µM | > 75 µM
CC1(C)C=C(/C=N/Nc2ccccc2)C(C#N)=C(O)C1(C#N)C#N | > 100 µM | > 100 µM | > 100 µM | > 100 µM | > 100 µM | > 100 µM | > 100 µM | > 100 µM | > 100 µM | > 100 µM
O=C(Nc1nn[nH]n1)c1nc(-c2ccccc2)cc(=O)[nH]1 | > 100 µM | > 100 µM | > 100 µM | > 100 µM | > 100 µM | > 100 µM | > 100 µM | > 100 µM | > 100 µM | > 100 µM
CC(C)(C)C1=C(Br)C(O)(C(C)(C)C)OP1(=O)c1ccccc1 (stereo not given) | > 100 µM | > 100 µM | > 100 µM | > 100 µM | > 100 µM | > 100 µM | > 100 µM | > 100 µM | > 100 µM | > 100 µM
Cc1nc(Nc2ccccc2Cl)sc1C(=O)CC(=O)C(N)=O | > 100 µM | > 100 µM | > 100 µM | > 100 µM | 92.2 µM | > 100 µM | > 100 µM | > 100 µM | > 100 µM | > 100 µM
C[C@H](C1CC2(C)OC2(C)C(=O)O1)[C@H]1CC[C@H]2[C@@H]3[C@@H]4O[C@@H]4[C@@]4(O)CC=CC(=O)[C@]4(C)[C@H]3CC[C@]12C (stereo not given in full) | > 50 µM | > 50 µM | 23.9 µM | > 50 µM | 19.8 µM | > 50 µM | > 50 µM | > 50 µM | > 50 µM | > 50 µM
CC(=O)OCC1OC(n2c(C)c(C)c(C)c(C#N)c2=S)C(OC(C)=O)C(OC(C)=O)C1OC(C)=O (stereo not given) | 93.1 µM | > 100 µM | 57.6 µM | > 100 µM | > 100 µM | 49.8 µM | > 100 µM | > 100 µM | > 100 µM | > 100 µM
COC(=O)Nc1nc2ccc(NC(=O)c3ccc(I)cc3)cc2[nH]1 | > 100 µM | > 100 µM | > 100 µM | > 100 µM | > 100 µM | > 100 µM | > 100 µM | > 100 µM | > 100 µM | > 100 µM
CCN(CC)C(=O)CCN1CC1 | > 10 µM | > 10 µM | > 10 µM | > 10 µM | > 10 µM | > 10 µM | > 10 µM | > 10 µM | > 10 µM | > 10 µM
N#Cc1c(N)nc2c3c1NC(=O)C(C(N)=O)C3c1ccccc1O2 (stereo not given) | > 100 µM | > 100 µM | > 100 µM | > 100 µM | > 100 µM | > 100 µM | > 100 µM | > 100 µM | > 100 µM | > 100 µM
O=C1NC(Cc2ccc(O)cc2)C(=O)NC1Cc1ccc(O)cc1 (stereo not given) | > 100 µM | > 100 µM | > 100 µM | > 100 µM | > 100 µM | > 100 µM | > 100 µM | > 100 µM | > 100 µM | > 100 µM
NCCSCCC(=O)O | > 100 µM | > 62.7 µM | > 100 µM | > 100 µM | > 92.6 µM | > 100 µM | > 100 µM | > 100 µM | > 100 µM | > 100 µM
CC(C)Oc1cccc(N2C(Nc3ccccc3)=Nc3ccncc3S2(=O)=O)c1 | 52.5 µM | > 100 µM | 95.6 µM | > 100 µM | > 100 µM | > 100 µM | 50.4 µM | 6.01 µM | > 100 µM | > 100 µM
